The record followed here is patent US6441175B1, “1-(N'-arylalkylaminoalkyl)aminoisoquinolines: a new class of dopamine receptor subtype” (Neurogen Corporation, priority 1997, dated 2002).

The target in series [1] is T1, D2 receptors (Chlorocebus aethiops, UniProt P52702).
T1 construct: expressed in transfected cells; host or cells: COS cells
Nature of the series: Assay for D2 and D4 receptor binding activity (COS cells, 3H-YM 09151-2), D2. The arrangement: species or system African Green monkey. To be noted: recombinant D2 in COS cells; 0.5 nM 3H-YM 09151-2. The procedure:
(§1) Assay For D2 And D4 Receptor Binding Activity
(§2) Pellets of COS cells containing recombinantly produced D2 or D4 receptors from African Green monkey were used for the assays. The sample is homogenized in 100 volumes (w/vol) of 0.05 M Tris HCl buffer at 4° C. and pH 7.4. The sample is then centrifuged at 30,000×g and resuspended and rehomogenized. The sample is then centrifuged as described and the final tissue sample is frozen until use. The tissue is resuspended 1:20 (wt/vol) in 0.05 M Tris HCl buffer containing 100 mM NaCl.
(§3) Incubations are carried out at 48° C. and contain 0.4 ml of tissue sample, 0.5 nM ^3H-YM 09151-2 and the compound of interest in a total incubation of 1.0 ml. Non-specific binding is defined as that binding found in the presence of […] spiperone; without further additions, nonspecific binding is less than 20% of total binding.

In series [2] the test system is D4 receptors. Nature of the series: Assay for D2 and D4 receptor binding activity (COS cells, 3H-YM 09151-2), D4. To be noted: recombinant D4 in COS cells; 0.5 nM 3H-YM 09151-2; read-out: D4 K1. The arrangement: species or system African Green monkey. The procedure:
as §1, §2, §3

For orientation: melting point means the temperature of the solid-liquid transition.

T1 sequence (P52702 whole entry): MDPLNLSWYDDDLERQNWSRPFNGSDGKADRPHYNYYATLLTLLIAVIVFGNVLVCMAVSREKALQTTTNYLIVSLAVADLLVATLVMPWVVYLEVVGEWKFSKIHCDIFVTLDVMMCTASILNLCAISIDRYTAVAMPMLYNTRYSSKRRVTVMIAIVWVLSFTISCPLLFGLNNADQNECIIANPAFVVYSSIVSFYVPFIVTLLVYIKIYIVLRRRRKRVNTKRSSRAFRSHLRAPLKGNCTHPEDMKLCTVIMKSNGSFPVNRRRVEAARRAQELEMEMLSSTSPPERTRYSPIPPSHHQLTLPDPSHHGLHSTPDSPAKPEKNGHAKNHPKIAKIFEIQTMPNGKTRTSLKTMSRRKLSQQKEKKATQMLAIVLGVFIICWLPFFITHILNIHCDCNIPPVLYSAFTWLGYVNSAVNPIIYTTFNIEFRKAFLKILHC

For the molecule “1-(1-[3-{(4-Pyridin-2-yl)piperazin-1-yl}]propyl)aminoisoquinoline hydrobromide [Compound 10]”, the Ki stood at 773 nM in series [1] and 2 nM in series [2].
With “1-(1-[2-{(4-[5-Fluoropyrimidin-2-yl])piperazin-1-yl}]ethyl)aminoisoquinoline hydrobromide [Compound 9]”, the values for the Ki in series [1] and in series [2] were 1500 nM and 13 nM, respectively.
The molecule `CN(CCCc1ccccc1)CCNC1=NCc2ccccc21` [Compound 3, 1-(N-[2-{N′-(3-phenylpropyl)-N′-methyl}aminoethyl])aminoisoindole dioxolate] displayed a melting point of 175 to 177 °C.
